Test results from US20140205670A1, “STABLE SOLID PREPARATIONS” (TAKEDA PHARMACEUTICAL COMPANY LIMITED, priority 2002, published 2014).

Test: Stability Test of Amorphous Lansoprazole R-Isomer (compatibility with basic substances, appearance change)
Assay type: physicochemical
Conditions: blending ratio A/base 1/1 (1/0 for No Addition)
Procedure: (1) 100 mg of amorphous lansoprazole R-isomer was weighed precisely under low humidity environment, and put in a transparent glass bottle. Subsequently, 100 mg of basic substance as a stabilizer of basic inorganic salt shown below was weighed precisely under low humidity environment, and placed in the bottle containing amorphous lansoprazole R-isomer. Then, the bottle was capped, and shaken slightly with hand to mix.
[1] magnesium carbonate MgCO3 [2] calcium carbonate CaCO3 [3] magnesium oxide MgO [4] magnesium hydroxide Mg (OH)2 [5] no basic substance (2) The prepared samples were stored under the condition of 40° C./75% RH (open) for 5 days. Color tones were named and color codes were numbered based on International Color Manual so as to estimate the appearance change of samples everyday. At the end of experiment, the stability was judged by comparing the color tone with that of the sample stored at 5° C. as initial sample. In addition, A represents amorphous lansoprazole R-isomer in Table 2.

color tone, Storage conditions initial (5° C. 5 days) (100 mg amorphous lansoprazole R-isomer (A) + 100 mg basic substance, stored at 5° C. as initial sample): pale greenish | appearance change after 40° C./75% RH 5 days compared with initial sample (5° C.) (40° C./75% RH (open), 5 days): (changed) | color tone, Storage conditions 40° C./75% RH 5 days (40° C./75% RH (open), 5 days): pale yellow
Compound: Cc1c(OCC(F)(F)F)ccnc1C[S@@+]([O-])c1nc2ccccc2[nH]1 [No Addition]
